Measurements published in patent US4719220A, “15(R)-5-fluoroprostacyclins, pharmaceutical compositions and anti-thrombotic methods of use thereof” (G. D. Searle & Co., priority 1986, dated 1988).
Where a name gives a salt, the structure may show the parent alone.

Columns and labels:
[1] = tested on: mean arterial pressure; assay: Hypotensive Activity in Normotensive Rats; type: in vivo, normotensive Sprague-Dawley rats; conditions: Table II; for ED (25 mm Hg): Rattus norvegicus, iv, bolus i.v., dose lowering pressure 25 mm Hg, read-out: Blood Pressure ED25; for Therapeutic Index (Blood Pressure ED25 / Anti-Aggregatory): ED25 blood pressure over ED50 ADP-thrombocytopenia
Procedure: Hypotensive Activity in Normotensive Rats.
Normotensive Sprague-Dawley rats (weighing 400 to 500 g) are anesthetized wrth 100 mg/kg barbital/25 mg/kg pentobarbital intraperitoneally. The jugular vein and carotid artery are then cannulated with polyethylene-50 tubing (for drug administration and blood pressure measurement, respectively). A tracheotomy tube is inserted and animals breath 100% O2 spontaneously.
Also, body temperature is maintained at 37° C. with a thermister probe and heat lamp. After a 10 to 15 minute stabilization period, bolus i.v. injections of compound are given and responses (decrease in mean arterial pressure in mm Hg) are recorded. A linear regression analysis is then performed on the data to yield the following information:
EDO --threshold dose or dose at which an effect is first observed.
ED50 --the dose which causes 50% of the maximal response slope of the regression line in mm Hg.
When blood pressure lowering effects are minimal, an ED50 cannot be determined and, instead, an ED25 (dose which lowers the maximal pressure 25 mm Hg) is calculated.

[2] = tested on: ADP-Thrombocytopenia (platelet numbers); assay: In vivo ADP-thrombocytopenia; set-up: species or system rat; conditions: rats; for In vivo (ADP-Thrombocytopenia) ED50: Table I, infusion right jugular vein five minutes, ADP 0.5 mg/kg; for Anti-Aggregatory in vivo (ADP-Thrombocytopenia) ED50: Table II
Procedure: In vivo ADP-thrombocytopenia
Vehicle/compound in saline is infused for five minutes in the right jugular vein of rats (400-500 g) anesthetized with pentobarbital. Adenosine diphosphate (0.5 mg/kg) in saline is immediately infused for one minute in the left jugular vein. Blood samples are drawn (1:10 into 3.8% citrate) and platelets counted on a Coulter counter and platelet numbers in treated animals are compared to controls. The ED50 (effectiVe dose in 50% of treated animals--μg/kg/minute) for compound activity is calculated from linear regression.

[3] = tested on: ADP-induced platelet aggregation; assay: In vitro ADP aggregation (platelet-rich plasma); type: cell-based; conditions: Table I; rat platelet-rich plasma, ADP 1-2 uM
Procedure: Rationale: The changes in optical density resulting from ADP-stimulation of platelet-rich plasma is used to identify compounds which inhibit or reverse platelet activation.
1. Platelet-rich plasma (PRP) is obtained from citrated whole rat blood.
2. Compound solutions are prepared at the initial screening dose of 1×1O^-4 M.
3. The prostacyclin (PGI2) standard is prepared in 0.lM NaOH-glycine (pH 10.0) over a range of 10^-9 -10^-8 M.
4. ADP in saline is added to PRP over a range of 1-2 uM to determine a concentration eliciting maximum aggregation within one minute.
5. PRP containing standard or test compound is preincubated for 1 minute and then stimulated with ADP. Vehicle controls are tested simultaneously.
6. The aggregation wave generated is monitored until the reversal phase is observed.
7. Platelet aggregation is quantified as the units of depth between the baseline and maximum depth.
8. Dose-response curves are generated for percent inhibition of ADP-induced platelet aggregation.
9. In vitro activity of the compounds screened is assessed by comparison of IC50 (M) with that of PGI2.

[4] = tested on: mean arterial pressure; assay: Hexamethonium Rat hypotensive activity (spontaneously hypertensive rats); type: in vivo; conditions: iv bolus
Procedure: Hexamethonium Rat (Duration)
Spontaneously hypertensive rats (300-400 g.) are anesthetized with 100 mg/kg barbital/25 mg/kg pentobarbital ip. The jugular vein and carotid artery are then cannulated with polyethylene-50 tubing (for drug administration and blood pressure measurement, respectively). A tracheotomy tube is inserted and animals breathe 100% O2 spontaneously. Body temperature is maintained at 37° C. with a thermister probe and heat lamp. Rats are then dosed with 1 mg/kg hexamethonium, iv bolus. After a 10-minute stabilization period, animals are dosed with compound. All compounds are dissolved in either glycine buffer or saline and given in a volume of 1 ml kg. Approximate ED50 doses are administered iv bolus and mean arterial pressure (MAP) is recorded every 30 seconds for 5 minutes, then every minute for a 15-20 minute period or until pressure returns to baseline. Changes in MAP (compared to pre-treatment values) are analyzed with a paired t-test.

[5] = tested on: blood pressure; conditions: U.S. Pat. No. 4,178,367; cited from earlier work
[6] = tested on: mean blood pressure / platelet aggregation; conditions: sodium salts, cited from earlier work; for ratio of blood pressure lowering activity and platelet aggregation inhibiting activity: dose for 20% lowering of mean blood pressure / minimum concentration for 50% inhibition of aggregation, PGI2 = 1; for platelet aggregation inhibition in comparison with blood pressure lowering, compared to PGI2: EP Publication No. 0054795

With `O=C(O)CCC[C@@H](F)C1=C[C@@H]2[C@@H](/C=C/[C@H](O)C3CCCC3)[C@H](O)C[C@@H]2O1` [(5R,15R), 15-cyclopentyl-6,9α-Epoxy-5R-fluoro-11α,15R-dihydroxy-16,17,18,19,20-pentanorprosta-6,13E-dien-1-oic acid, sodium salt] the ED (25 mm Hg) [1] was 0.501 mg/kg, the “Therapeutic Index (Blood Pressure ED25 / Anti-Aggregatory)” value [1] was 217.8 and the “In vivo (ADP-Thrombocytopenia) ED50” value [2] was 2.3 µg/kg/min. For the same molecule, the “Anti-Aggregatory in vivo (ADP-Thrombocytopenia) ED50” value [2] was 2.3 µg/kg/min and the IC50 [3] was 600 nM.

With `O=C(O)CCC/C(F)=C1/C[C@@H]2[C@@H](/C=C/[C@@H](O)C3CCCC3)[C@H](O)C[C@@H]2O1` [(5F,15S)] the “Blood Pressure Hexamethonium Rat, Blood Pressure/dose (decrease)” value ([4]; 10 μg/kg) was -104 mm/Hg, the “In vivo (ADP-Thrombocytopenia) ED50” value [2] was 0.87 µg/kg/min and the IC50 [3] was 11 nM.

For `CCCC1CCC([C@H](O)/C=C/[C@@H]2[C@H]3C/C(=C/CCCC(=O)OC)O[C@H]3C[C@H]2O)C1` (stereo partly drawn) [(5Z, 13E)-(9α,11α,15S)-6,9-epoxy-11,15-dihydroxy-15-(3 propyl)cyclopentyl-16, 17, 18, 19, 20-pentanorprosta-5,13-dienoic acid methyl ester], the “blood pressure lowering activity compared to a 15R derivative” value [5] is given as “greater blood pressure lowering activity”.

With `O=C(O)CCC[C@H](F)C1=C[C@@H]2[C@@H](/C=C/[C@H](O)C3CCCC3)[C@H](O)C[C@@H]2O1` [(5S,15R), 15-cyclopentyl-6,9α-Epoxy-5S-fluoro-11α, 15R-dihydroxy-16,17,18,19,20-pentanorprosta-6,13E-dien-1-oic acid, sodium salt] the “Blood Pressure Hexamethonium Rat, Blood Pressure/dose (decrease)” value ([4]; 100 μg/kg) was “Inactive”, the “In vivo (ADP-Thrombocytopenia) ED50” value [2] was 3.3 µg/kg/min and the IC50 [3] was 8600 nM.

For `CCCCC[C@H](O)/C=C/[C@@H]1[C@H]2C/C(=C/CCCC(=O)O)O[C@H]2C[C@H]1O` [PGI2, (5Z)-9-deoxy-6,9α-epoxy-Δ^5 -PGF1], the “ratio of blood pressure lowering activity and platelet aggregation inhibiting activity” value [6] is given as 1.

For `O=C(O)CCC[C@@H](F)C1=C[C@@H]2[C@@H](/C=C/[C@@H](O)C3CCCC3)[C@H](O)C[C@@H]2O1` [(5R,15S)], the “Blood Pressure Hexamethonium Rat, Blood Pressure/dose (decrease)” value ([4]; 10 μg/kg) was -47 mm/Hg, the ED (25 mm Hg) [1] was 0.0026 mg/kg and the “Therapeutic Index (Blood Pressure ED25 / Anti-Aggregatory)” value [1] was 0.87. For the same molecule, the “In vivo (ADP-Thrombocytopenia) ED50” value [2] was 3.0 µg/kg/min, the “Anti-Aggregatory in vivo (ADP-Thrombocytopenia) ED50” value [2] was 3.0 µg/kg/min and the IC50 [3] was 190 nM.

For `CCCCCC(O)C=CC1C(O)CC2OC(=CCCCC(=O)[O-])C(F)C21.[Na+]` (stereo not drawn) [7-fluoro derivative, 7-fluoro-PGI2 sodium salt], the “ratio of blood pressure lowering activity and platelet aggregation inhibiting activity” value [6] is listed as 32 and the “platelet aggregation inhibition in comparison with blood pressure lowering, compared to PGI2” value [6] is listed as “stronger activities with respect to the inhibition of platelet aggregation in comparison with their blood pressure lowering activities compared to PGI2”.

In the case of `O=C(O)CCC/C=C1/C[C@@H]2[C@@H](/C=C/[C@@H](O)C3CCCC3)[C@H](O)C[C@@H]2O1` [(15S)], the “Blood Pressure Hexamethonium Rat, Blood Pressure/dose (decrease)” value ([4]; 0.2 μg/kg) is reported as -83 mm/Hg and the IC50 [3] is reported as 76 nM.

With `O=C(O)CCC/C=C1/C[C@@H]2[C@@H](/C=C/[C@H](O)C3CCCC3)[C@H](O)C[C@@H]2O1` [(15R)] the “Blood Pressure Hexamethonium Rat, Blood Pressure/dose (decrease)” value ([4]; 100 μg/kg) was -76 mm/Hg and the IC50 [3] was 630 nM.

For `O=C(O)CCC[C@H](F)C1=C[C@@H]2[C@@H](/C=C/[C@@H](O)C3CCCC3)[C@H](O)C[C@@H]2O1` [(5S,15S)], the “Blood Pressure Hexamethonium Rat, Blood Pressure/dose (decrease)” value ([4]; 10 μg/kg) was -42 mm/Hg, the “In vivo (ADP-Thrombocytopenia) ED50” value [2] was 2.3 µg/kg/min and the IC50 [3] was 100 nM.

In the case of `CCCCCC(O)C=CC1C(O)CC2OC(=C(Cl)CCCC(=O)[O-])CC21.[Na+]` (stereo not drawn) [5-chloro derivative, 5-chloro-PGI2 sodium salt], the “ratio of blood pressure lowering activity and platelet aggregation inhibiting activity” value [6] is given as 4 and the “platelet aggregation inhibition in comparison with blood pressure lowering, compared to PGI2” value [6] is given as “stronger activities with respect to the inhibition of platelet aggregation in comparison with their blood pressure lowering activities compared to PGI2”.
